Among the data in patent publication US9278527B2, “Ink jet recording ink, ink jet recording method, ink jet recording head, and ink jet recording apparatus” (CANON FINETECH INC., priority 2013, dated 2016) are Hydrophilicity-hydrophobicity coefficient and Solubility values, retold here.

Like-named read-outs stand apart in the source and are kept apart here.

A short description of data set [1]: Hydrophilicity-hydrophobicity coefficient from water activity value of 20% aqueous solution (equation (A)). The class given is physicochemical.
[2] abbreviates: 20% aqueous solution, water activity by chilled mirror dew point method (AquaLab CX-3TE) at 25° C., equation (A).

The compound Bishydroxyethyl sulfone displayed a Hydrophilicity-hydrophobicity coefficient in data set [1] of 0.21.

In data set [1] (setting [2]), Polyethylene glycol 200 yielded a Hydrophilicity-hydrophobicity coefficient of −0.09. This compound registered a Solubility in the data set “Solubility in water” above 20 g/100 g H2O.

For the compound `CCCC(O)CO` (stereo not drawn) [1,2-Pentanediol], the Hydrophilicity-hydrophobicity coefficient in data set [1] (setting [2]) is on record as 0.93. In addition, the Solubility in “Solubility in water” was above 20 g/100 g H2O.

In data set [1] (setting [2]), `OCCC(O)CO` (stereo not drawn) [1,2,4-Butanetriol] had a Hydrophilicity-hydrophobicity coefficient of 0.15. This compound came in with a Solubility in “Solubility in water” above 20 g/100 g H2O.

On to `OC[C@@H](O)[C@@H](O)[C@H](O)[C@@H](O)CO` [Sorbitol], for which the Hydrophilicity-hydrophobicity coefficient in data set [1] (setting [2]) was 0.21. The compound also had a Solubility in “Solubility in water” above 20 g/100 g H2O.

Take `OCCCCCCO` [1,6-Hexanediol]: the Hydrophilicity-hydrophobicity coefficient in data set [1] (setting [2]) came to 0.76. Besides, the Solubility in “Solubility in water” is above 20 g/100 g H2O.

`CC(O)C(O)CO` (stereo not drawn) [1,2,3-Butanetriol] yielded a Hydrophilicity-hydrophobicity coefficient in data set [1] (setting [2]) of 0.22. In the data set “Solubility in water”, the Solubility is above 20 g/100 g H2O.

For `CC(O)CC(C)O` (stereo not drawn) [2,4-Pentanediol], in data set [1] (setting [2]), the Hydrophilicity-hydrophobicity coefficient was 0.86. This compound also showed a Solubility in the data set “Solubility in water” above 20 g/100 g H2O.

As for `CCC(O)CO` (stereo not drawn) [1,2-Butanediol], the Hydrophilicity-hydrophobicity coefficient in data set [1] (setting [2]) was found to be 0.90. Moreover, the Solubility in “Solubility in water” is above 20 g/100 g H2O.

With Polyethylene glycol 600, in data set [1] (setting [2]), the Hydrophilicity-hydrophobicity coefficient is listed as −0.43. Further, in “Solubility in water”, the Solubility was above 20 g/100 g H2O.

On to `OCCOCCOCCO` [Triethylene glycol], for which the Hydrophilicity-hydrophobicity coefficient in data set [1] (setting [2]) is given as 0.07. Moreover, the Solubility in “Solubility in water” is above 20 g/100 g H2O.

On to `CC(C)(O)CCO` [3-Methyl-1,3-butanediol], for which the Hydrophilicity-hydrophobicity coefficient in data set [1] (setting [2]) is reported as 0.90. The Solubility in the data set “Solubility in water” is above 20 g/100 g H2O.

`OCCCCC(O)CO` (stereo not drawn) [1,2,6-Hexanetriol] returned a Hydrophilicity-hydrophobicity coefficient in data set [1] (setting [2]) of 0.28. The Solubility in “Solubility in water” is above 20 g/100 g H2O.

For the compound `CC(CCO)CCO` [3-Methyl-1,5-Pentanediol], in data set [1] (setting [2]), the Hydrophilicity-hydrophobicity coefficient stood at 0.54. In “Solubility in water”, the Solubility was above 20 g/100 g H2O.

`NC(N)=O` [Urea] showed a Hydrophilicity-hydrophobicity coefficient in data set [1] (setting [2]) of 0.20. Moreover, the Solubility in “Solubility in water” was above 20 g/100 g H2O.

With `O=C1NCCN1` [Ethylene urea], the Hydrophilicity-hydrophobicity coefficient in data set [1] (setting [2]) is 0.30. In “Solubility in water”, the Solubility is above 20 g/100 g H2O.

`OCCCCCO` [1,5-Pentanediol]: the Hydrophilicity-hydrophobicity coefficient in data set [1] (setting [2]) is recorded as 0.41. In the data set “Solubility in water”, this compound yielded a Solubility above 20 g/100 g H2O.

With `CCCCC(O)CO` (stereo not drawn) [1,2-Hexanediol], in data set [1] (setting [2]), the Hydrophilicity-hydrophobicity coefficient is 0.97. Moreover, the Solubility in the data set “Solubility in water” was above 20 g/100 g H2O.

Take `OCC(O)CO` [Glycerin]: the Hydrophilicity-hydrophobicity coefficient in data set [1] (setting [2]) is given as 0.11. In “Solubility in water”, this compound displayed a Solubility above 20 g/100 g H2O.

In data set [1] (setting [2]), `OCCCCCCCO` [1,7-Heptanediol] yielded a Hydrophilicity-hydrophobicity coefficient of 0.73. The compound also had a Solubility in the data set “Solubility in water” above 20 g/100 g H2O.
